From patent publication US7384966B2, “2-arylbenzothiazole derivatives” (Pharminxo Limited, priority 2004, dated 2008)
Read-outs that look alike come from different tables or passages of the source.

Columns and labels:
[1] = test system: HCC 2998; test: MTT assay, 3 day exposure, HCC 2998; type: cell-based; conditions: Homo sapiens, read-out: GI50 values in cell lines, HCC 2998
Experimental: (§1) A range of compounds were evaluated in MTT assays following 3 day exposure against a panel of two human breast cancer cell lines MCF-7 (ER+) and MDA 468 (ER−), and two colon cancer cell lines KM12 and HCC 2998. In general the breast cell lines were more sensitive to the agents and the MDA 468 line the most sensitive of the four (Table 2). The benchmark active compound was 5-fluoro-2-(3,4-dimethoxyphenyl)benzothiazole (1) with GI50 values<0.1 nM against the two breast cell lines. […] The most interesting series of compounds were those combining a 5-fluoro group with two oxygenated substituents in the 3′,4′-positions where minor, seemingly conservative, structural changes were associated with a dramatic variations in activity (when compared to 1). […] In summary, this in vitro screen led to the identification of the fluorinated 2-(3,4-dimethoxyphenyl)benzothiazole structure as a novel antitumor pharmacophore with the 5-fluoro analogue (1) astride a pinnacle of activity.
(§2) The assays/methods used to generate the results referred to herein are well known to those skilled in the art and therefore it has not been necessary to describe them in detail.

[2] = test system: MCF-7; test: MTT assay, 3 day exposure, MCF-7; type: cell-based; conditions: Homo sapiens, read-out: GI50 values in cell lines, MCF-7
Experimental: as §1, §2

[3] = test system: MCF-7, MDA 468, KM12 and HCC 2998; test: MTT assay, panel of four cell lines, results in words; type: cell-based, human; conditions: compared to compound 1
Experimental: as §1

[4] = test system: KM 12; test: MTT assay, 3 day exposure, KM12; type: cell-based, human; conditions: KM 12 (colon), read-out: GI50 values in cell lines, KM 12
Experimental: as §1, §2

[5] = test system: MDA 468; test: MTT assay, 3 day exposure, MDA 468; type: cell-based; conditions: Homo sapiens, MDA 468 (breast), read-out: GI50 values in cell lines, MDA 468
Experimental: as §1, §2

[6] = HCC 2998, 72 h, HCC 2998 (colon), MTT, 3 day exposure, triplicate
[7] = MCF7, 72 h, MCF-7 (breast), MTT, 3 day exposure, triplicate
[8] = Homo sapiens, KM12, 72 h, MTT, 3 day exposure, triplicate
[9] = 72 h, MTT, 3 day exposure, triplicate
[10] = MCF7, MCF-7 (breast), value in nM

GI50 [1, 6] | GI50 [2, 7] | melting point | GI50 ([1]; HCC 2998, HCC 2998 (colon), value in nM) | GI50 [2, 10] | SMILES | growth inhibitory potency in words [3] | GI50 [4, 8] | GI50 [5, 9] | GI50 ([4]; value in nM) | GI50 ([5]; value in nM)
7600 nM | 500 nM | 169 to 172 °C |  |  | COc1ccc(-c2nc3cc(F)ccc3s2)cc1O [Compound 5, 5-Fluoro-2-(3-hydroxy-4-methoxyphenyl)benzothiazole] | dyschemotherapeutic effect | 18400 nM | 50 nM |  | 
3320 nM | 80 nM | 136 to 139 °C |  |  | CCOc1cc(-c2nc3cc(F)ccc3s2)ccc1OC [Compound 45, 2-(3-Ethoxy-4-methoxyphenyl)-5-fluorobenzothiazole] | dyschemotherapeutic effect | 5420 nM | 92 nM |  | 
940 nM | 820 nM | 167 °C |  |  | COc1ccc(-c2nc3cc(F)ccc3s2)cc1I [Compound 28, 5-Fluoro-2-(3-iodo-4-methoxyphenyl)benzothiazole] |  | 6900 nM | 360 nM |  | 
13700 nM | 870 nM | 157 to 159 °C |  |  | COc1ccc(-c2nc3cc(F)ccc3s2)cc1F [Compound 25, 5-Fluoro-2-(3-fluoro-4-methoxyphenyl)benzothiazole] |  | 20600 nM | 640 nM |  | 
2500 nM | 760 nM |  |  |  | COc1ccc(-c2nc3cc(F)ccc3s2)cc1Cl [Compound 26, 5-fluoro 2-(3-Chloro-4-methoxyphenyl)benzothiazole] |  | 7050 nM | 480 nM |  | 
 |  | 109 to 110 °C | 203 nM | 157 nM | COc1ccc(-c2nc3cc(F)ccc3s2)c(OC)c1OC [Compound 50, 2-(2,3,4-Trimethoxyphenyl)-5-fluorobenzothiazole] |  |  |  | 2905.3 nM | 336 nM
53500 nM | 65 nM | 101 to 102 °C |  |  | COCOc1ccc(-c2nc3cc(F)ccc3s2)cc1OC [Compound 44, 5-Fluoro-2-(3-methoxy-4-methoxymethyloxyphenyl)benzothiazole] | dyschemotherapeutic effect | 19200 nM | 48 nM |  | 
20000 nM | 13600 nM | 157 to 158 °C |  |  | COc1ccc(-c2nc3cc(Br)ccc3s2)cc1OC [Compound 24, 5-Bromo-2-(3,4-dimethoxyphenyl)benzothiazole] | essentially abolished inhibitory potency | 65200 nM | 770 nM |  | 
4880 nM | 27900 nM | 154 to 155 °C |  |  | COc1ccc(-c2nc3cc(Cl)ccc3s2)cc1OC [Compound 23, 5-Chloro-2-(3,4-dimethoxyphenyl)benzothiazole] | essentially abolished inhibitory potency | 12400 nM | 1000 nM |  | 
540 nM | 48 nM | 120 °C |  |  | COc1ccc(-c2nc3cc(F)ccc3s2)cc1C [Compound 22, 5-Fluoro-2-(4-methoxy-3-methylphenyl)benzothiazole] |  | 18600 nM | 58 nM |  | 
 |  | 156 °C |  |  | COc1cc(-c2nc3cc(F)ccc3s2)ccc1O [Compound 6, 5-Fluoro-2-(4-hydroxy-3-methoxyphenyl)benzothiazole] | dyschemotherapeutic effect |  |  |  | 
21100 nM | 1.9 nM | 120 to 122 °C |  |  | COc1cc(-c2nc3cc(F)ccc3s2)cc(OC)c1OC [Compound 43, 5-Fluoro-2-(3,4,5-trimethoxyphenyl)benzothiazole] | retained nanomolar inhibitory potency against the MCF-7 cell and MDA 468 cell lines | 13000 nM | 2.1 nM |  | 
 |  | 125 °C |  |  | CCCC(=O)Oc1cc(-c2nc3cc(F)ccc3s2)ccc1OC [Compound 47, 2-(3-Butyroyloxy-4-methoxyphenyl)-5-fluorobenzothiazole] |  |  |  |  | 
 |  | 150 °C |  |  | CCC(=O)Oc1cc(-c2nc3cc(F)ccc3s2)ccc1OC [Compound 13, 5-Fluoro-2-(3-propionyloxy-4-methoxyphenyl)benzothiazole] |  |  |  |  | 
5210 nM | 1230 nM | 115 °C |  |  | COc1cc(OC)cc(-c2nc3cc(F)ccc3s2)c1 [Compound 42, 5-Fluoro-2-(3,5-dimethoxyphenyl)benzothiazole] | only low micromolar inhibitory potency | 7550 nM | 310 nM |  | 
3450 nM | 850 nM | 173 to 175 °C |  |  | COc1ccc(-c2nc3cc(F)ccc3s2)cc1Br [Compound 27, 2-(3-Bromo-4-methoxyphenyl)-5-fluorobenzothiazole] |  | 6700 nM | 420 nM |  | 

Second part, the compound before the results:

SMILES | GI50 [1, 6] | GI50 [2, 7] | melting point | GI50 ([1]; HCC 2998, HCC 2998 (colon), value in nM) | GI50 [2, 10] | growth inhibitory potency in words [3] | GI50 [4, 8] | GI50 [5, 9] | GI50 ([4]; value in nM) | GI50 ([5]; value in nM)
COc1ccc(-c2nc3cc(F)ccc3s2)cc1 [Compound 29, 5-Fluoro-2-(4-methoxyphenyl)benzothiazole] | 12400 nM | 490 nM | 123 to 124 °C |  |  |  | 24600 nM | 330 nM |  | 
COc1ccc(-c2nc3cc(F)ccc3s2)cc1OC(=O)c1cccc([N+](=O)[O-])c1 [Compound 17, 5-Fluoro-2-[3-(3-nitrobenzoyloxy)-4-methoxyphenyl]benzothiazole] |  |  | 212 °C |  |  |  |  |  |  | 
COc1ccc(-c2nc3cc(F)ccc3s2)cc1OC(=O)c1ccccc1 [Compound 14, 2-(3-Benzoyloxy-4-methoxyphenyl)-5-fluorobenzothiazole] |  |  | 160 °C |  |  |  |  |  |  | 
COc1cc(-c2nc3cc(F)ccc3s2)ccc1OC(=O)c1cccc([N+](=O)[O-])c1 [Compound 21, 5-Fluoro-2-[4-(3-nitrobenzoyloxy)-3-methoxyphenyl]benzothiazole] |  |  | 190 °C |  |  |  |  |  |  | 
CCOc1ccc(-c2nc3cc(F)ccc3s2)cc1OCC [Compound 46, 2-(3,4-Diethoxyphenyl)-5-fluorobenzothiazole] |  | 0.7 nM | 109 to 113 °C |  | 0.7 nM | dyschemotherapeutic effect | 38500 nM | 55 nM |  | 
COc1ccc(-c2nc3cc(F)ccc3s2)cc1OC(=O)c1ccc([N+](=O)[O-])cc1 [Compound 18, 5-Fluoro-2-[3-(4-nitrobenzoyloxy)-4-methoxyphenyl]benzothiazole] |  |  | 198 °C |  |  |  |  |  |  | 
COc1ccc(-c2nc3cc(F)ccc3s2)cc1OC(C)=O [Compound 11, 2-(3-Acetoxy-4-methoxyphenyl)-5-fluorobenzothiazole] |  |  | 190 °C |  |  |  |  |  |  | 
COc1ccc(-c2nc3cc(F)ccc3s2)cc1OC(=O)N1CCOCC1 [Compound 19, 5-Fluoro-2-[3-(morpholin-4-ylcarbonyloxy)-4-methoxyphenyl]benzothiazole] | 7530 nM |  | 170 °C |  | 0.085 nM |  | 7140 nM |  |  | 0.64 nM
COc1ccc(-c2nc3cc(F)ccc3s2)cc1OC(=O)c1ccccc1Br [Compound 16, 2-[3-(2-Bromobenzoyloxy)-4-methoxyphenyl]-5-fluorobenzothiazole] |  |  | 220 to 223 °C |  |  |  |  |  |  | 
Oc1ccc(-c2nc3cc(F)ccc3s2)cc1O [Compound 9, 5-Fluoro-2-(3,4-dihydroxyphenyl)benzothiazole] |  |  | 197 °C |  |  | dyschemotherapeutic effect |  |  |  | 
COc1cc(-c2nc3cc(F)ccc3s2)ccc1OC(=O)N1CCOCC1 [Compound 20, 5-Fluoro-2-[4-(morpholin-4-ylcarbonyloxy)-3-methoxyphenyl]benzothiazole] |  |  | 126 °C |  |  |  |  |  |  | 
COc1ccc(-c2sc3ccc(F)cc3[n+]2[O-])cc1OC [Compound 53, 2-(3,4-Dimethoxyphenyl)-5-fluorobenzothiazole N-oxide] | 40300 nM | 920 nM | 201.4 °C |  |  |  | > 100000 nM | 760 nM |  | 
COc1ccc(-c2nc3cc(F)ccc3s2)cc1OC(=O)c1ccccc1Cl [Compound 15, 2-[3-(2-Chlorobenzoyloxy)-4-methoxyphenyl]-5-fluorobenzothiazole] |  |  | 190 °C |  |  |  |  |  |  | 
Fc1ccc2sc(-c3ccc4c(c3)OCO4)nc2c1 [Compound 7, 5-Fluoro-2-(3,4-methylenedioxyphenyl)benzothiazole] | 22300 nM | 20700 nM | 161 to 164 °C |  |  | dyschemotherapeutic effect | 25100 nM | 570 nM |  | 
